Source: patent US20260256753A1, “USE OF AN OREXIN 2 RECEPTOR AGONIST FOR IMPROVING RESPIRATORY FUNCTION DURING SLEEP” (TAKEDA PHARMACEUTICAL COMPANY LIMITED, priority 2023, published 2026)

How the values were obtained:
Assay type in all cases: cell-based
[1] = test system: neurons in the pre-Bötzinger complex; assay: Electrophysiologic recording of neurons in the pre-Bötzinger complex in rat medullary slices; details: whole cell patch clamp, versus vehicle (0.1% DMSO) control, FIG. 1
Excerpt: (§1) Neonatal rats (postnatal day 1-10) were decapitated and the neuraxis was isolated in a chamber filled with oxygenated artificial cerebrospinal fluid solution (ACSF, in mM: NaCl 125, KCl 2.5, MgCl2 1, CaCl2 2, NaHCO3 25, NaH2PO4 1.25, glucose 25, pH 7.4). The cerebellum was removed, and the brainstem was mounted in the vibratome (VT 1000S; Leica, Milan, Italy) chamber filled with oxygenated gluconate cutting solution (in mM: Kgluconate 130, KCl 15, EGTA 0.2, HEPES 20, glucose 25, kynurenic acid 2, pH 7.4). Transverse medullary slices containing the pre-Bötzinger complex and hypoglossal nucleus were cut (400-600 μm thick). The slices were transferred at room temperature for 1 min in an oxygenated mannitol cutting solution (in mM: D-mannitol 225, glucose 25, KCl 2.5, NaH2PO4 1.25, NaHCO3 26, CaCl2 0.8, MgCl2 8, kynurenic acid 2, pH 7.4). Slices were then transferred in ACSF solution at 30° C. for 30 min and at room temperature for 30 min. At least 30 min prior to the start of recording, each slice was transferred in the recording solution in which the concentration of K+ was raised to 9 mM and that of Mg2+ was decreased to 0.5 mM to ensure the production of long-term and stable rhythm. […] Signals were acquired using Clampex 10.6 software (Axon, Molecular Devices, CA, USA) at a sampling rate of 10-20 kHz and filtered at 2-10 kHz using an 8-pole Bessel filter built within the software and analyzed using Clampfit 10.6 software (pClamp 10.6; Axon, Molecular Devices). […] Bursts were then automatically detected, and burst frequency was measured.
(§2) To evaluate the effects of vehicle (0.1% DMSO) on neuronal activities, after 5 min of stabilization, the neuronal activities under basal condition was recorded for 2-12 min, followed by recording in the presence of vehicle (0.1% DMSO) for 30 min. […]

phrenic motoneurons = assay: Electrophysiologic recording of phrenic motoneurons in rat isolated brainstem-spinal cord preparations; details: C3-5 ventral root, versus vehicle control, FIG. 2
Experimental: Neonatal (postnatal day 1-4) rats were decapitated, and the brainstem-spinal cord was dissected in a bath containing ACSF. The cerebellum and pons were ablated. At least 30 min prior to the start of recording, the tissue was transferred in the recording solution in which the concentration of K+ was raised to 5 mM and that of Mg2+ was decreased to 0.5 mM to ensure production of long-term and stable rhythm (modified ACSF, in mM: NaCl 125, MgCl2 0.5, KCl 5, CaCl2 1, NaHCO3 25, NaH2PO4 1.25, glucose 30, pH 7.4). The tissues were glued on coverslips and transferred to a recording chamber and continuously perfused at 27±2° C. with mACSF at a flow rate of 2.3±0.2 mL/min. Activity of phrenic motoneurons was measured in electrophysiological recordings from C3-5 ventral root, outputs of phrenic motoneurons (J. J. Greer, J. C. Smith, J. L. Feldman, Respiratory and locomotor patterns generated in the fetal rat brain stem-spinal cord in vitro, J Neurophysiol 67 (4) (1992) 996-9; J. C. Smith, J. J. Greer, G. S. Liu, J. L. Feldman, Neural mechanisms generating respiratory pattern in mammalian brain stem-spinal cord in vitro. I. Spatiotemporal patterns of motor and medullary neuron activity, J Neurophysiol 64 (4) (1990) 1149-69), using a glass suction electrode. […] The rectification and integration was used for quantification of the activities of phrenic motoneurons because the spontaneous bursts detected in voltage signals are consisting of multiple positive and negative voltages from baseline (T. Sugita, et al.). […] Bursts were then automatically detected, and burst frequency was measured.
To evaluate the effects of vehicle (0.1% DMSO) on neuronal activities, after 5 min of stabilization, the neuronal activities under basal condition were recorded for 2-20 min, followed by recording with vehicle (0.1% DMSO) for 30-40 min. […] As vehicle (0.1% DMSO) had no significant effects on burst frequency of phrenic neurons, potential of drugs was assessed under vehicle (0.1% DMSO). […]

hypoglossal motoneurons = assay: Electrophysiologic recording of hypoglossal motoneurons in rat medullary slices; details: whole cell patch clamp, versus vehicle control, FIG. 3
Excerpt: as §1, §2

COC(=O)N1CCC[C@H](NS(C)(=O)=O)[C@@H]1CO[C@H]1CC[C@@H](c2ccccc2)CC1 (relative stereo) [Compound A, methyl(2R,3S)-3-((methylsulfonyl)amino)-2-(((cis-4-phenylcyclohexyl)oxy)methyl) piperidine-1-carboxylate]
increased burst frequency: burst frequency in neurons in the pre-Bötzinger complex [1] | burst frequency of phrenic motoneurons (phrenic motoneurons) | burst frequency of hypoglossal motoneurons (hypoglossal motoneurons)

CC(C)(O)C(=O)N1CC(F)(F)[C@H](NS(C)(=O)=O)[C@@H]1Cc1cccc(-c2cc(F)cc(F)c2)c1F [Compound C, N-{(2S,3R)-4,4-difluoro-1-(2-hydroxy-2-methylpropanoyl)-2-[(2,3′,5′-trifluoro[1,1′-biphenyl]-3-yl)methyl]pyrrolidin-3-yl}methanesulfonamide]
increased burst frequency: burst frequency in neurons in the pre-Bötzinger complex [1] | burst frequency of phrenic motoneurons (phrenic motoneurons) | burst frequency of hypoglossal motoneurons (hypoglossal motoneurons)
